Patent publication US7241763B2, “3-furanyl analogs of toxoflavine as kinase inhibitors” (priority 2002, dated 2007)
Read-outs that look alike come from different tables or passages of the source.

Tests used:
cdk4 = cdk4 (Homo sapiens, UniProt P11802); assay: In vitro inhibition of cdk4 using a scintillant proximity assay (CDK4 SPA, Ex. C1); assay type: biochemical
Experimental: In Vitro Inhibition of cdk4 using a Scintillant Proximity Assay
The scintillant proximity assay (SPA) is in general described in U.S. Pat. No. 4,568,649 (Amersham Pharmacia Biotech). In the present cdk4 SPA kinase reaction assay, a kinase substrate consisting of a fragment of the restinoblastoma protein (pRb) tagged with […] (GST), is incubated with the aforementioned protein in the presence of (^33P) radiolabeled ATP. (^33P) phosporylation of the substrate is subsequently measured as light energy emitted using glutathione-coated SPA beads (Amersham Pharmacia Biotech) by trapping and quantifying the binding of the GST tagged and radiolabeled restinoblastoma protein.
The CDK4 SPA kinase reaction is performed at room temperature for 30 minutes in a 96-well microtiter plate. For each of the tested compounds a full dose response —10^−5M to 3.10^−9M—has been performed. Flavopiridol was used as reference compound. The 100 μl reaction volume contains 50 mM Hepes, 10 mM NaF, 10 mM MgCl2, 1 mM Na3VO4 pH 7.5, 1.5 μg CDK4-cell lysate/well, 0.2 μM unlabeled ATP, 1.7 μg/well GST-pRb, 1.7 nM AT^33P and 1 μl of a DMSO solution. The reaction is stopped by diluting the reaction mixture ½ with 0.1 mM Na2EDTA, 0.1 mM non-labeled ATP, 0.05% Triton-X-100 and 10 mg/ml glutathion coated beads in PBS. The microtiterplates are centrifuges at 900 rpm for 10 minutes and the amount of phosphorylated (^33P) pRb is determined by counting (1 min/well) in a microtiterplate scintillation counter.

AKT3 [1] = biological target: T1, AKT3 (Homo sapiens, UniProt Q9Y243); assay: In vitro inhibition of AKT3 using a filter assay (AKT3 pep., Ex. C3); assay type: biochemical
Experimental: In Vitro Inhibition of AKT3 using a Filter Assay
In the present AKT3 filter assay, a kinase substrate consisting of a fragment of histone H2B, is incubated with the aforementioned protein in the presence of (^33P) radiolabeled ATP. The (^33P)phosporylated substrate binds to a phosphocellulose cation exchange filter, that can easily be removed from the incubation mixture and counted using a microplate scintillation counter.
AKT3 filter assays were performed at 25° C. for 3 hrs in the presence of 25 mM Hepes, pH 7.0, containing 15 mM MgCl2, 1 mM DTT Each assay was performed in a 100 μl reaction volume containing 111 nM AKT3 (diluted in 25 mM Hepes, pH 7.0, containing 15 mM MgCl2, 1 mM DTT) and the 2.5 μM Histone H2B and 2 nM ATP-P^32. The reaction was terminated by addition of 100 μl 75 mM H3PO4, 90 μl of the assay mixture was filtered through Phosphocellulose cation exchange paper. After five times washing with […] H3PO4, the filterpaper was counting in a microtiterplate scintillation counter.

A2780 cell = assay: Cytotox/survival of A2780 cell after 3 days; assay type: cell-based; settings: Homo sapiens, read-out: Cytotox/survival of A2780 cell after 3 days - pIC50 values (converted)
Experimental: In an alternative assay, the growth inhibitory effect of the compounds was tested on the ovarian carcinoma cell line A2780 using art known cytotoxicity assays such as LIVE/DEAD (Molecular Probes) or MTT.

CDC25B = biological target: T2, CDC25B (Homo sapiens, UniProt P30305); assay: In vitro inhibition of CDC25B using the fluorogenic substrate 3-OMFP (CDC25B WT, Ex. C5); assay type: biochemical
T2 sequence (P30305 1-580): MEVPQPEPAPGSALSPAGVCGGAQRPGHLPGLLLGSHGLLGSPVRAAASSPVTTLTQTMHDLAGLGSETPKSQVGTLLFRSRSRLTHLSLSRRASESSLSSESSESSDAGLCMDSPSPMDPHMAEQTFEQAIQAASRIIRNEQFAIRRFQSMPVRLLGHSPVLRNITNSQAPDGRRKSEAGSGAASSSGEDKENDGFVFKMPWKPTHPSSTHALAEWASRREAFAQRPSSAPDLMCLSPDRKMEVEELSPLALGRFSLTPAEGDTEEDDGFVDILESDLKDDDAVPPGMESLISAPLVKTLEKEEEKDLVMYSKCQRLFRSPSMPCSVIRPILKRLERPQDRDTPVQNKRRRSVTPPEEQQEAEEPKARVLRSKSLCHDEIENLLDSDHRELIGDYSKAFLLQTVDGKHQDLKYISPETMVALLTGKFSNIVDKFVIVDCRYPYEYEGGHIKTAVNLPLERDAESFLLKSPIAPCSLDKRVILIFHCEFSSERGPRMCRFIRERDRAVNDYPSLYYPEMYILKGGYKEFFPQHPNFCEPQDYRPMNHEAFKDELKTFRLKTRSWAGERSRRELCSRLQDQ
Experimental: In Vitro Inhibition of CDC25B using the Fluorogenic Substrate 3-OMFP
CDC25B phosphatase activity is assessed using the fluorogenic substrate 3-O-methyl-flurorescein-phosphate (3-OMFP). The phosphatase-reaction is performed for 1 hour at room temperature in a black microtiter plate in a volume of 50 μl. The reaction mixture contains 4 μg/mlCDC25B, 15 μM (3-OMFP), 15 mM Tris, 50 mM NaCl, 1 mM DTT, 1 mM Na2EDTA at pH 8.0 and 0.1% DMSO solution at 10^−5 M and the hits are tested in the same conditions in a full dose/response from 10^−5, 3.10^−6, 10^−6 and 3.10^−7 M. The enzymatic activity is determined by measuring the fluorescent signal at 485 nm (ex.) and 538 (em.).

AKT3 [2] = biological target: T1, AKT3; assay: Cellular inhibition of AKT3 using an ELISA (AKT cel, Ex. C6); assay type: cell-based; set-up: endogenous in cells; host or cells: MDA-MB 231
Experimental: Cellular Inhibition of AKT3 using an ELISA
The human breast adenocarcinoma cell line (MDA-MB 231) was used in an phosphospecific antibody cell ELISA (PACE) to assess the inhibitory effect of the compounds on AKT3 mediated phosphorylation of mitogen-activated protein kinase (MAPK). In the experiments the MDA-MB 231 cells were serum starved for 24 hours (5% CO2; 37° C.). Subsequently, the cells are incubated at room temperature for 2 hours with 20 μM (in serum free medium) of the phosphatidylinositol 3-kinase inhibitor Ly294002 (Alexis, San Diego, Calif.) prior to the incubation for 30 minutes with the compounds at a final concentration ranging from 1 nM to 3 μM. After fixation (with 4.5% formaldehyde) for 20 minutes and washing with PBS (0.1M) the cells were successively incubated with for 5 minutes with 0.1% Triton X-100 in PBS, for 20 minutes with 0.6% H2O2 and 1 hour with a 2% BSA solution as blocking buffer. […] The OD (490–655 nm) reflected the amount of phosphorylated MAPK and the pIC50 of the compounds was based on their effect with respect to blanco (0.1% DMSO) or an internal reference compound treatment.

[3] = GST-pRb substrate, 33P-ATP, room temperature 30 minutes, read-out: CDK4 SPA (Ex. C1): pIC50 values (converted)
[4] = histone H2B substrate, filter assay, 25° C. 3 hrs, read-out: AKT3 pep. (Ex. C3): pIC50 values (converted)
[5] = 72 h, A2780 ovarian carcinoma cell line, 3 days
[6] = 3-OMFP substrate, 1 hour room temperature, read-out: CDC25B WT (Ex. C5): pIC50 values (converted)
[7] = MDA-MB 231 cells, phosphorylated MAPK ELISA, 30 minutes with compound, read-out: AKT cel (Ex. C6): pIC50 values (converted)

T1 sequence (Q9Y243 whole entry): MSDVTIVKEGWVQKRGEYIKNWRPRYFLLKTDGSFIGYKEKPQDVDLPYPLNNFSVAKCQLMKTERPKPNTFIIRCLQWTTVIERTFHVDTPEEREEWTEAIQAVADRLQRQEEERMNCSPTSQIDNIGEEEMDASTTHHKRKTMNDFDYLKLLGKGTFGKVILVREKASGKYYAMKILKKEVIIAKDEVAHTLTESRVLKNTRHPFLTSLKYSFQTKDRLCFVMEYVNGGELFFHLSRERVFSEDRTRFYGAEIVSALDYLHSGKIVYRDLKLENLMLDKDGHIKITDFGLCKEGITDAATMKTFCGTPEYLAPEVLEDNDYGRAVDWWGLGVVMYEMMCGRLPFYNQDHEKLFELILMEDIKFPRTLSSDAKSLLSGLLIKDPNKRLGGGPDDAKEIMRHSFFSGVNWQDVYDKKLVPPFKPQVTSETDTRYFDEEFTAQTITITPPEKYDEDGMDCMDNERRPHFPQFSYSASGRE
Chain of cdk4 (P11802 whole entry): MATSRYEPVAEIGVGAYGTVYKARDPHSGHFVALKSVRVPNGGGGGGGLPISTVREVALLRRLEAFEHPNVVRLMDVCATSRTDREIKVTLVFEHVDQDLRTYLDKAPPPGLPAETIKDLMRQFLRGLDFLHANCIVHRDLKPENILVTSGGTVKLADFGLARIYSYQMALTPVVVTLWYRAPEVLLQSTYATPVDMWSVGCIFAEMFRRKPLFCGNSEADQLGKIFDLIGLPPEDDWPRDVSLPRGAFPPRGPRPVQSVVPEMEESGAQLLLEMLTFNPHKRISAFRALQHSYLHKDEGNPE
Chain of cdk4 (P24385 whole entry partner): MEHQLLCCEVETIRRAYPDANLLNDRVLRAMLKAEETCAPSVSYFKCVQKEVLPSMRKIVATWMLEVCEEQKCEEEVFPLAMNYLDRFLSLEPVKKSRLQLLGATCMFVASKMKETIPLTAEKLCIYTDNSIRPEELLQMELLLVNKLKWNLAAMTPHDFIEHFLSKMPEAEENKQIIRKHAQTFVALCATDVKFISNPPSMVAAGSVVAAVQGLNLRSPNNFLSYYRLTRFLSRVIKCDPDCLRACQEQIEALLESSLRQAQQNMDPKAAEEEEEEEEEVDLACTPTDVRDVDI

Row | Structure (SMILES) | IC50 (cdk4) | IC50 (AKT3 [1]) | IC50 (A2780 cell; A2780, 72 h) | IC50 (CDC25B) | melting point | IC50 (AKT3 [2]) | IC50 (cdk4; [3]) | IC50 (AKT3 [1]; [4]) | IC50 (A2780 cell; [5]) | IC50 (CDC25B; [6]) | IC50 (AKT3 [2]; [7])
1 | Cn1c(=O)nc2n(C3CCCC3)nc(-c3ccc(-c4ccc(OCCN5CCOCC5)cc4)o3)nc-2c1=O [Compound 117] | 286 nM | 49.4 nM | 178 nM | 18.9 nM | 173 °C | 813 nM |  |  |  |  | 
2 | Cn1c(=O)nc2n(C3CCCC3)nc(-c3ccc(-c4ccc(CN(CCO)CCO)cc4)o3)nc-2c1=O [Compound 134] |  |  |  |  | 242 °C |  | 111 nM | 59.8 nM | 52.7 nM | 12.9 nM | 39.2 nM
3 | CC(C)n1nc(-c2ccc(-c3ccc(CN(C)CCO)cc3)o2)nc2c(=O)n(C)c(=O)nc1-2 [Compound 87] |  |  |  |  | 229 °C |  | 80.7 nM | 72.9 nM | 61.4 nM | 24.3 nM | 35.2 nM
4 | COC1CCN(Cc2ccc(-c3ccc(-c4nc5c(=O)n(C)c(=O)nc-5n(C5CCCC5)n4)o3)cc2)CC1 [Compound 132] |  |  |  |  | 220 °C |  | 78.5 nM | 47 nM | 87.7 nM | 20.2 nM | 58.3 nM
5 | Cn1c(=O)nc2n(C3CCCC3)nc(-c3ccc(-c4ccc(CN5CCN(CCOCCO)CC5)cc4)o3)nc-2c1=O [Compound 121] |  |  |  |  | > 250 °C |  | 161 nM | 57.3 nM | 137 nM | 12 nM | 406 nM
6 | Cn1c(=O)nc2n(C3CCCC3)nc(-c3ccc(-c4ccc(CNCc5cccnc5)cc4)o3)nc-2c1=O [Compound 122] |  |  |  |  | 205 °C |  | 91 nM | 30.9 nM | 70.5 nM | 14 nM | 123 nM
7 | COCCN1CCN(Cc2ccc(-c3ccc(-c4nc5c(=O)n(C)c(=O)nc-5n(C5CCCC5)n4)o3)cc2)CC1 [Compound 133] |  |  |  |  | 186 °C |  | 112 nM | 61 nM | 119 nM | 11.6 nM | 67.8 nM
8 | Cn1c(=O)nc2n(C3CCCC3)nc(-c3ccc(-c4ccc(CO)cc4)o3)nc-2c1=O [Compound 31] |  |  |  |  | 182 °C |  | 137 nM | 44.3 nM | 74 nM | 13.8 nM | 277 nM
9 | Cn1c(=O)nc2n(C3CCCC3)nc(-c3ccc(-c4ccc(CN5CCN(S(N)(=O)=O)CC5)cc4)o3)nc-2c1=O [Compound 112] |  |  |  |  | > 250 °C |  | 117 nM | 63.7 nM | 142 nM | 19.8 nM | 202 nM
